Assay results from paper PMC10629825, “Genetic validation of PfFKBP35 as an antimalarial drug target” (eLife, 2023).

What was measured:
Assay type in all cases: biochemical
[1] = biological target: T1, N6-methyl transferase MT-A70 (Plasmodium falciparum, UniProt Q8I6Z2); assay: isothermal dose-response MS-CETSA on parasite protein lysate (putative target)
T1 construct: gene PF3D7_0729500; endogenous protein in parasite lysate

PfFKBP35 = biological target: T2, PfFKBP35 (Plasmodium falciparum, UniProt Q8I4V8); assay: isothermal dose-response MS-CETSA on parasite protein lysate ([…]°C); live-cell CETSA EC50 […]
T2 construct: gene FKBP35; endogenous protein in parasite lysate
T2 sequence (Q8I4V8 whole entry): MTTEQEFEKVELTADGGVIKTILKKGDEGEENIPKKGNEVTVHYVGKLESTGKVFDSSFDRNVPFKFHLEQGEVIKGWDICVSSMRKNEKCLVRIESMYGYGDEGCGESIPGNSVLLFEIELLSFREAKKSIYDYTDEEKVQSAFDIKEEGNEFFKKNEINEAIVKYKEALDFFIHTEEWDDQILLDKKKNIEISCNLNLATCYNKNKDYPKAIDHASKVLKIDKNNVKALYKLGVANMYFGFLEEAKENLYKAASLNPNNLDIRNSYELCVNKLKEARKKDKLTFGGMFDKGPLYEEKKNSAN

[2] = biological target: T3, pre-mRNA-splicing factor CEF1 (Plasmodium falciparum, UniProt Q7KQL1); assay: isothermal dose-response MS-CETSA on parasite protein lysate (putative target)
T3 construct: gene PF3D7_1033600; endogenous protein in parasite lysate
T3 sequence (Q7KQL1 entry or part of it): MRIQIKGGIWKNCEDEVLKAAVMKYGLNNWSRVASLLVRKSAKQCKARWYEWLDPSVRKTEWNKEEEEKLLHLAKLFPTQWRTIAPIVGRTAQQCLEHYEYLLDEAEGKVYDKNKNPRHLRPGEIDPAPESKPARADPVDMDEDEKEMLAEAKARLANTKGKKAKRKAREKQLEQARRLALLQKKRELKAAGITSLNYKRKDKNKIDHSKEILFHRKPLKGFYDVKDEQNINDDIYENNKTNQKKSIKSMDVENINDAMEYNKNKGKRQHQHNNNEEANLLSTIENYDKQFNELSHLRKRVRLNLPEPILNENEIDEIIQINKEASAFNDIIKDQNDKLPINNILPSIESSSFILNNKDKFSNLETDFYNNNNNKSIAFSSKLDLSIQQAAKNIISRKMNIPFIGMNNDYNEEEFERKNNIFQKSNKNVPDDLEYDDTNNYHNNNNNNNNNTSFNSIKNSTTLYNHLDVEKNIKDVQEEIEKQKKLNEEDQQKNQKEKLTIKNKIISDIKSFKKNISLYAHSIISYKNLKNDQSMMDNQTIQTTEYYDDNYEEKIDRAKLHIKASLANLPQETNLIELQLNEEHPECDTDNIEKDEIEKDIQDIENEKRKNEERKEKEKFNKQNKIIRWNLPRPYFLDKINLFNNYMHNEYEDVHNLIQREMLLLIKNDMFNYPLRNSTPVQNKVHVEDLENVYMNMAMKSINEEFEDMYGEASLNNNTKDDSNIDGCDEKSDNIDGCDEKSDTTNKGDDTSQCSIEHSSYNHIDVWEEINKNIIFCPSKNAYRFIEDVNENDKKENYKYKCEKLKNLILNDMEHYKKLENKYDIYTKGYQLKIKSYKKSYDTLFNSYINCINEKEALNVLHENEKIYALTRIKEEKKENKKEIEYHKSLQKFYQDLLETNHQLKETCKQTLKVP

T1 sequence (Q8I6Z2 entry or part of it): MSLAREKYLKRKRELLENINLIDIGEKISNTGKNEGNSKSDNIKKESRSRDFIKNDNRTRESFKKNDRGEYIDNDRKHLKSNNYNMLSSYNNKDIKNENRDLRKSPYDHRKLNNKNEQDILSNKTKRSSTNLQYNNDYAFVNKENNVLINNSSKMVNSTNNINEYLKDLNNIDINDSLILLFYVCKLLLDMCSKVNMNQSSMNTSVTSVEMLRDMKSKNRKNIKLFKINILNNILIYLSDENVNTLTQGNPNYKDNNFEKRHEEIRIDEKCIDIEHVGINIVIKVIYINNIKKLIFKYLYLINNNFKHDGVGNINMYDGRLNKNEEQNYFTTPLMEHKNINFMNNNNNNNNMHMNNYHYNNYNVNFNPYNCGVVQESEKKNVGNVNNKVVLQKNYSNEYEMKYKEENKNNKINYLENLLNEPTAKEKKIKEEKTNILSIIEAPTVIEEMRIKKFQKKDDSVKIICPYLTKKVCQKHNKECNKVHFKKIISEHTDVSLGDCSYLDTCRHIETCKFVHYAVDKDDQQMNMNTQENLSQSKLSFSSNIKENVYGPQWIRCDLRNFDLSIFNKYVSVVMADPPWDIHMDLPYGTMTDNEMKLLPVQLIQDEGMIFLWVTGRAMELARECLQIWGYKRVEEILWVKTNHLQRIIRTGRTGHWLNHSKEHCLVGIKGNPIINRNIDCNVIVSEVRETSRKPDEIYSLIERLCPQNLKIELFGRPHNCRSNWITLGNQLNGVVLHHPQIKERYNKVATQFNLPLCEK

## C=CC[C@@H]1/C=C(\C)C[C@H](C)C[C@H](OC)[C@H]2O[C@@](O)(C(=O)C(=O)N3CCCC[C@H]3C(=O)O[C@H](/C(C)=C/[C@@H]3CC[C@@H](O)[C@H](OC)C3)[C@H](C)[C@@H](O)CC1=O)[C@H](C)C[C@@H]2OC [FK506]
[1]
  EC50: 2000 nM
PfFKBP35
  EC50: 152 nM
[2]
  EC50: 3100 nM
